# Assay results reported in paper PMC2821678 (Chemico-biological interactions, 2009).
# Where two headings read alike, the source gives them in different places.
# Key:
# [1] = tested on: SK-MEL-28 melanoma cells; assay: MTT cell viability, SK-MEL-28; format: cell-based, human
# [2] = tested on: Mushroom tyrosinase; assay: Tyrosinase mediated GSH depletion assay; format: biochemical; details: for % GSH depletion (2 h) Tyrosinase/O2: 2 h incubation
# [3] = tested on: B16-F0 melanoma cells; assay: MTT cell viability, B16-F0; format: cell-based, murine; details: for IC50: read-out: IC50 (48 h) B16-F0
# [4] = tested on: tyrosinase shRNA transfected SK-MEL-28 cells; assay: Drug sensitivity assay using tyrosinase shRNA transfected cells; format: cell-based, human
# [5] = clinical trials terminated; cited from earlier work
# [6] = tested on: Mushroom tyrosinase; format: biochemical; details: pH 7.4; for Tyrosinase Kinetics AA (rate of AA oxidation): nM of AA per compound (μM) per tyrosinase (U/ml) per min; for Tyrosinase Kinetics NADH (rate of NADH oxidation): nM of NADH per compound (μM) per tyrosinase (U/ml) per min
# [7] = tested on: melanocytic SK-MEL-28 melanoma cells; assay: Intracellular GSH measurement, SK-MEL-28; format: cell-based, human
# [8] = tested on: amelanotic C32 melanoma cells; assay: Intracellular GSH measurement, C32; format: cell-based, human
# [9] = tested on: melanocytic SK-MEL-28 melanoma cells; assay: Reactive oxygen species; format: cell-based, human
# [10] = tested on: amelanotic C32 melanoma cells; assay: Reactive oxygen species; format: cell-based, human
# [11] = tested on: SK-MEL-5 cells; assay: MTT cell viability, SK-MEL-5; format: cell-based, human; details: 75 μM
# [12] = tested on: MeWo cells; assay: MTT cell viability, MeWo; format: cell-based, human; details: 75 μM
# [13] = tested on: B16-F10 melanoma cells; assay: MTT cell viability, B16-F10; format: cell-based, murine; details: 75 μM
# [14] = tested on: amelanotic SK-MEL-24 cells; assay: MTT cell viability, SK-MEL-24; format: cell-based; details: 75 μM
# [15] = tested on: amelanotic C32 cells; assay: MTT cell viability, C32; format: cell-based, human; details: 75 μM
# [16] = MTT cell viability, PC-3; format: cell-based; details: human, PC-3 prostate cells
# [17] = MTT cell viability, BJ; format: cell-based; details: human, BJ skin fibroblast cells
# [18] = MTT cell viability, Saos-2; format: cell-based; details: human, Saos-2 osteosarcoma cells
# [19] = MTT cell viability, SW-620; format: cell-based; details: human, SW-620 colorectal adenocarcinoma cells
# [20] = tested on: SK-MEL-28 melanoma cells; assay: Cell cycle analyses by flow cytometry; format: cell-based, human; details: 48 h
# [21] = read-out: IC50 (48 h) SK-MEL-28, 48 h, MTT
# [22] = Homo sapiens, SK-MEL-28, 48 h, read-out: IC50 (48 h) SK-MEL-28
# [23] = 0.75 mM (750 μM), listed as C00002
compound,measurement,setting,value
2-hydroxyacetophenone,IC50,[1]; [21],4 mM
COc1ccccc1O [2-hydroxyanisole],% GSH depletion (2 h) Tyrosinase/O2,[2],25±2%
same,IC50,"[3]; Mus musculus, B16F0, 48 h",0.051 mM
same,IC50,[1]; [22],2.2 mM
O=C(O)c1ccccc1O [2-hydroxybenzoic acid],% GSH depletion (2 h) Tyrosinase/O2,[2],0%
same,IC50,"[3]; Mus musculus, B16F0, 48 h",5.2 mM
same,IC50,[1]; [22],5 mM
OCc1ccccc1O [2-hydroxybenzyl alcohol],% GSH depletion (2 h) Tyrosinase/O2,[2],0%
same,IC50,"[3]; Mus musculus, B16F0, 48 h",1.1 mM
same,IC50,[1]; [22],1.5 mM
Cc1ccccc1O [2-hydroxytoluene],IC50,"[3]; Mus musculus, B16F0, 48 h",3.2 mM
same,IC50,[1]; [22],3.2 mM
CC(=O)c1cccc(O)c1 [3-hydroxyacetophenone],IC50,"[3]; 48 h, MTT",1.4 mM
same,IC50,[1]; [21],2 mM
COc1cccc(O)c1 [3-hydroxyanisole],% GSH depletion (2 h) Tyrosinase/O2,[2],24±3%
same,IC50,"[3]; Mus musculus, B16F0, 48 h",0.043 mM
same,IC50,[1]; [22],3.4 mM
O=C(O)c1cccc(O)c1 [3-hydroxybenzoic acid],IC50,"[3]; Mus musculus, B16F0, 48 h",1.8 mM
same,IC50,[1]; [22],2.3 mM
OCc1cccc(O)c1 [3-hydroxybenzyl alcohol],% GSH depletion (2 h) Tyrosinase/O2,[2],29±3%
same,IC50,"[3]; Mus musculus, B16F0, 48 h",4.6 mM
same,IC50,[1]; [22],5 mM
Cc1cccc(O)c1 [3-hydroxytoluene],IC50,"[3]; Mus musculus, B16F0, 48 h",2.1 mM
same,IC50,[1]; [22],2.5 mM
CC(=O)c1ccc(O)cc1 [4-hydroxyacetophenone],IC50,"[3]; Mus musculus, B16F0, 48 h",3 mM
same,IC50,[1]; [22],8 mM
COc1ccc(O)cc1 [4-hydroxyanisole],% GSH depletion Tyrosinase/O2,[2]; measurement conducted at 30 min,95±3 %
same,IC50,"[3]; Mus musculus, B16F0, 48 h",0.06 mM
same,IC50,[1]; [22],0.05 mM
same,cell toxicity when tyrosinase was silenced by shRNA plasmid,[4]; 4-HA 50 μM,significantly less cell toxicity
same,liver toxicity in clinical trials,[5],serious liver toxicity
O=C(O)c1ccc(O)cc1 [4-hydroxybenzoic acid],% GSH depletion (2 h) Tyrosinase/O2,[2],30±5%
same,IC50,"[3]; Mus musculus, B16F0, 48 h",4.2 mM
same,IC50,[1]; [22],11.2 mM
OCc1ccc(O)cc1 [4-hydroxybenzyl alcohol],IC50,"[3]; Mus musculus, B16F0, 48 h",2.2 mM
same,IC50,[1]; [22],2 mM
Cc1ccc(O)cc1 [4-hydroxytoluene],IC50,[1]; [22],2 mM
"CC(=O)c1ccccc1 [Acetophenone, acetophenone, reference compound]",% GSH depletion (2 h) Tyrosinase/O2,[2],44±3%
same,IC50,"[3]; Mus musculus, B16F0, 48 h",> 12 mM
same,IC50,[1]; [22],> 10 mM
"COc1ccccc1 [Anisole, anisole, reference compound]",% GSH depletion (2 h) Tyrosinase/O2,[2],21±3%
same,IC50,"[3]; Mus musculus, B16F0, 48 h",> 5 mM
same,IC50,[1]; [22],> 12 mM
"O=C(O)c1ccccc1 [Benzoic acid, benzoic acid, reference compound]",% GSH depletion (2 h) Tyrosinase/O2,[2],12±2%
same,IC50,"[3]; Mus musculus, B16F0, 48 h",11 mM
same,IC50,[1]; [22],> 10 mM
"OCc1ccccc1 [Benzyl alcohol, benzyl alcohol, reference compound]",% GSH depletion (2 h) Tyrosinase/O2,[2],0%
same,IC50,"[3]; Mus musculus, B16F0, 48 h",8 mM
same,IC50,[1]; [22],> 10 mM
"CCOC(=O)c1ccc(OC)cc1 [E4MB, ethyl 4-methoxybenzoate]",% GSH depletion (2 h) Tyrosinase/O2,[2]; listed as C00002,5±3%
same,Tyrosinase Kinetics AA (rate of AA oxidation),[6],8 nM
same,Tyrosinase Kinetics AA (rate of AA oxidation),[6]; listed as C00002,8 nM ^**
same,Tyrosinase Kinetics NADH (rate of NADH oxidation),[6],50 nM
same,Tyrosinase Kinetics NADH (rate of NADH oxidation),[6]; listed as C00002,50 nM ^**
same,IC50,"[1]; Homo sapiens, SK-MEL-28, 48 h, read-out: IC50 (48 h) SK-MEL-28 cells",0.75 mM
same,fold decrease in toxicity when compared to 4-HEB,"[1]; from IC50 (48 h), SK-MEL-28",10 fold
same,Intracellular GSH (ICG) depletion (2 h),[7]; 0.75 mM (750 μM),10%
same,Intracellular GSH (ICG) depletion (2 h),[7]; [23],10%
same,Intracellular GSH depletion (2 h),[7]; 1 mM,13%
same,Intracellular GSH depletion (2 h),[7]; 1.5 mM,15%
same,Intracellular GSH (ICG) depletion (2 h),[8]; 0.75 mM (750 μM),6%
same,Intracellular GSH (ICG) depletion (2 h),[8]; [23],6%
same,Intracellular GSH depletion (2 h),[8]; 1 mM,7%
same,Intracellular GSH depletion (2 h),[8]; 1.5 mM,10%
same,Fold ROS formation (40 min) at IC50,"[9]; 750 μM, SK-MEL-28",9 Fold
same,ROS formation,"[9]; 750 μM-5 mM, SK-MEL-28, in comparison to 4-HEB",significantly lower
same,Fold ROS formation (40 min) at IC50,"[10]; 750 μM, C32",4 Fold
same,ROS formation,"[10]; 750 μM-5 mM, C32",negligible
"CCOC(=O)c1ccccc1O [Ethyl 2-hydroxybenzoate, ethyl 2-hydroxybenzoate]",% GSH depletion (2 h) Tyrosinase/O2,[2],22±2%
same,IC50,"[3]; Mus musculus, B16F0, 48 h",2.6 mM
same,IC50,[1]; [22],2 mM
"CCOC(=O)c1cccc(O)c1 [Ethyl 3-hydroxybenzoate, ethyl 3-hydroxybenzoate]",IC50,"[3]; Mus musculus, B16F0, 48 h",1.9 mM
same,IC50,[1]; [22],2.1 mM
"CCOC(=O)c1ccc(O)cc1 [Ethyl 4-hydroxybenzoate, ethyl 4-hydroxybenzoate]",% GSH depletion (2 h) Tyrosinase/O2,[2],24±4%
same,% GSH depletion (2 h) Tyrosinase/O2,[2]; listed as 4-HEB,24%
same,% GSH depletion (2 h) Tyrosinase/O2,[2]; listed as C00001,24±4%
same,Tyrosinase Kinetics AA (rate of AA oxidation),[6]; listed as C00001,143 nM ^*
same,Tyrosinase Kinetics NADH (rate of NADH oxidation),[6]; listed as C00001,389 nM ^*
same,anti-proliferative effect,"[3]; 75 μM, B16-F0",62±11%
same,IC50,"[3]; Mus musculus, B16F0, 48 h",0.19 mM
same,anti-proliferative effect,"[1]; 75 μM, SK-MEL-28",52±4%
same,IC50,[1]; [22],0.075 mM
same,anti-proliferative effect,[11],57±5%
same,anti-proliferative effect,[12],55±8%
same,anti-proliferative effect,[13],60±8%
same,anti-proliferative effect,[14],24±3%
same,anti-proliferative effect,[15],28±4%
same,viability at 75 µM,[16],85 ± 3%
same,viability at 75 µM,[17],89 ± 7%
same,viability at 75 µM,[18],86 ± 1%
same,viability at 75 µM,[19],89 ± 4%
same,toxicity prevented by transfection with tyrosinase shRNA clone 3,"[4]; 75 μM, 48 h, shRNA3 curtailed tyrosinase expression by 50%",24±7%
same,Intracellular GSH (ICG) depletion (2 h),"[7]; 75 μM, listed as C00001",37%
same,Intracellular GSH (ICG) depletion (2 h),"[8]; 75 μM, listed as 4-HEB",8%
same,Intracellular GSH (ICG) depletion (2 h),"[8]; 75 μM, listed as C00001",8%
same,Intracellular GSH depletion (2 h),[8]; 150 μM,13%
same,Fold ROS formation (40 min) at IC50,"[9]; 75 μM, SK-MEL-28",24 Fold
same,ROS formation,"[9]; 75-1500 μM, various time points, SK-MEL-28",dose and time dependent increase
same,Fold ROS formation (40 min) at IC50,"[10]; 75 μM, C32",6 Fold
same,ROS formation,"[10]; 75-1500 μM, C32, compared with SK-MEL-28",significantly less
same,Apoptosis (Sub G0/G1),[20]; 75 μM,2.9±0.3 %
same,G1,[20]; 75 μM,74.7±0.8%
same,G2/M,[20]; 75 μM,9.9±0.1%
same,S,[20]; 75 μM,12.4±0.7%
same,Apoptosis (Sub G0/G1),[20]; 150 μM,3.1±0.2 %
same,G1,[20]; 150 μM,72.1±0.7%
same,G2/M,[20]; 150 μM,10.6±0.9%
same,S,[20]; 150 μM,13.2±1.2%
same,Apoptosis (Sub G0/G1),[20]; 250 μM,5.0±0.9 %
same,G1,[20]; 250 μM,63.4±1.8 %
same,G2/M,[20]; 250 μM,10.7±0.7%
same,S,[20]; 250 μM,20.1±2.6 %
same,Apoptosis (Sub G0/G1),[20]; 500 μM,6.2±0.8 %
same,G1,[20]; 500 μM,59.8±1.6 %
same,G2/M,[20]; 500 μM,10.9±0.4%
same,S,[20]; 500 μM,22.1±0.9 %
"CCOC(=O)c1ccccc1 [Ethyl benzoate, ethyl benzoate, reference compound]",% GSH depletion (2 h) Tyrosinase/O2,[2],26±3%
same,IC50,"[3]; Mus musculus, B16F0, 48 h",> 10 mM
same,IC50,[1]; [22],7 mM
"Cc1ccccc1 [Toluene, toluene, reference compound]",IC50,"[3]; Mus musculus, B16F0, 48 h",> 10 mM
same,IC50,[1]; [22],10 mM
